Laboratory results published in patent US20250304644A1, “PEPTIDES TRIPLE AGONISTS OF GIP, GLP-1 AND GLP-2” (BAINAN BIOTECH APS, priority 2021, published 2025).
*1 amine or outer side, *2 acyl side, *3 side chain or, on linkers, in order; H or OH if unused. Where a SMILES comes first, the peptide text is derived from it. Where no end group is shown, it is not given here. Side-chain parts run from the residue outwards. The star is where a group is joined. C18 diacid = O=C(O)CCCCCCCCCCCCCCCCC(=O)*; γGlu = O=C(O)[C@H](CCC(=O)[*:2])N[*:1]; AEEA = NCCOCCOCC(=O)O

Legend:
Format in all cases: cell-based
human GIPR = target: T1, human GIPR (Homo sapiens, UniProt P48546); test: cAMP assay (HitHunter) in transiently transfected COS-7 cells expressing human GIPR; details: for Emax: COS-7, normalized to highest concentration of the endogenous ligand, read-out: Efficacy GIPR (Emax); for EC50: cAMP, COS-7 cells, human GIPR
T1 construct: host or cells: COS-7
T1 sequence (P48546 22-466): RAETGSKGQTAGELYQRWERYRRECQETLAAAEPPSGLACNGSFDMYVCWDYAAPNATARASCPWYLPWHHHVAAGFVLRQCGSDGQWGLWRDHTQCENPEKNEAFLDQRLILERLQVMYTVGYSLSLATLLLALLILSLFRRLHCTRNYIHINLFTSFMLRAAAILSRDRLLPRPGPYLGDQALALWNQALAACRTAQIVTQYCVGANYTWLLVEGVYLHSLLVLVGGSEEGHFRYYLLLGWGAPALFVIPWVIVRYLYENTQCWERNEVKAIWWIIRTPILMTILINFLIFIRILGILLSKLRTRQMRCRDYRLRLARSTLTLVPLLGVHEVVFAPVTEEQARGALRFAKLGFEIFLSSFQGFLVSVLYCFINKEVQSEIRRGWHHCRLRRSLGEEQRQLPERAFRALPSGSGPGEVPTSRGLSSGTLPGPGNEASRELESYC

human GLP-2R = target: T2, human GLP-2R (Homo sapiens, UniProt O95838); test: cAMP assay (HitHunter) in transiently transfected COS-7 cells expressing human GLP-2R; details: for Emax: COS-7, normalized to highest concentration of the endogenous ligand, read-out: Efficacy GLP-2R (Emax)
T2 construct: host or cells: COS-7
T2 sequence (O95838 1-553): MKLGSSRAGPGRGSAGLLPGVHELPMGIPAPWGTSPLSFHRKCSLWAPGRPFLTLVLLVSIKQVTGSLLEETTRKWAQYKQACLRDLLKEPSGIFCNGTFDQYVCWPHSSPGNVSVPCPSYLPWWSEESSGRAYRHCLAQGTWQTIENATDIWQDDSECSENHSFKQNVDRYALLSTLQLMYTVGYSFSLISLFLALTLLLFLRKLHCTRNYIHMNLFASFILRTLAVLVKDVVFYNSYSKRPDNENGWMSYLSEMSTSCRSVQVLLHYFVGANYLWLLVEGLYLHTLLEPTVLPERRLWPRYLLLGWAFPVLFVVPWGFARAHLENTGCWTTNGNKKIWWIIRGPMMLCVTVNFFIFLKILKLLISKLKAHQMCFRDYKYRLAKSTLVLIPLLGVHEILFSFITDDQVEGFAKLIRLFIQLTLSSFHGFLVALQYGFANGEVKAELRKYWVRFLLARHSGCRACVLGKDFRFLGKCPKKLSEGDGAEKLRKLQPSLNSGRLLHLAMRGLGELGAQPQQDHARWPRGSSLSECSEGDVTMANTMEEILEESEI

human GLP-1R = target: T3, human GLP-1R (Homo sapiens, UniProt P43220); test: cAMP assay (HitHunter) in transiently transfected COS-7 cells expressing human GLP-1R; details: for Emax: COS-7, normalized to highest concentration of the endogenous ligand, read-out: Efficacy GLP-1R (Emax); for EC50: cAMP, COS-7 cells, human GLP-1R, read-out: EC50 (nM) GLP-1R
T3 construct: host or cells: COS-7
T3 sequence (P43220 24-463): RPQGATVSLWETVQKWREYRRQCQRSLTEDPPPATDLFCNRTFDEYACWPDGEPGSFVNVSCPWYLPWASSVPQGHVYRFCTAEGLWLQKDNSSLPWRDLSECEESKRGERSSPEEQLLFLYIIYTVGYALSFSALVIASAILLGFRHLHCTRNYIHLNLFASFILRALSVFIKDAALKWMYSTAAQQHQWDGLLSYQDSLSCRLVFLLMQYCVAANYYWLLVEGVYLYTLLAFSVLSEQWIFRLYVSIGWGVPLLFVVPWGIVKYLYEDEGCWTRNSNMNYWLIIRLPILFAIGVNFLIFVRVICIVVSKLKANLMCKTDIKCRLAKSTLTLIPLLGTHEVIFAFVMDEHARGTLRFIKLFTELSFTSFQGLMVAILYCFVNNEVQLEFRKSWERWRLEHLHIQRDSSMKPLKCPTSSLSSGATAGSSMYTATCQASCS

human SNAP-tagged GIPR = target: T4, human SNAP-tagged GIPR (Homo sapiens, UniProt P48546); test: Receptor internalization assay, HEK293A cells expressing human SNAP-tagged GIPR; details: for Absolute hGIPR internalization (AUC): AUC of sigmoid curves up to 1 μM, 60 minutes at 37° C.; for Relative hGIPR internalization (%): relative to hGIP 1-42 = 100
T4 construct: host or cells: HEK293A
T4 sequence (P48546 22-466): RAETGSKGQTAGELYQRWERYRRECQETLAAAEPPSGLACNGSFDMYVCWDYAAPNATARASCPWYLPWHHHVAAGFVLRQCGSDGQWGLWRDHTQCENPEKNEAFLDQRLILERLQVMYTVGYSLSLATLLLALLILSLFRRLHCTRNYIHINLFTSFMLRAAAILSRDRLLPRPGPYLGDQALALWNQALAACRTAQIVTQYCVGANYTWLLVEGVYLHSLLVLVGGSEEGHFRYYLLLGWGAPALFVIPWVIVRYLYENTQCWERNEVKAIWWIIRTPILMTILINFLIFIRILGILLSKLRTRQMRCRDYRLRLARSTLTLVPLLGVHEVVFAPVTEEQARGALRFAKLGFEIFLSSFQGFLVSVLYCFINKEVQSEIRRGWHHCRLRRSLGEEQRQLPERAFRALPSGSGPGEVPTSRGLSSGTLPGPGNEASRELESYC

human SNP-tagged GLP-2R = target: T5, human SNP-tagged GLP-2R (Homo sapiens, UniProt O95838); test: Receptor internalization assay, HEK293A cells expressing human SNAP-tagged GLP-2R; details: AUC of sigmoid curves up to 1 μM; 60 minutes at 37° C.
T5 construct: expressed in transfected cells; host or cells: HEK293A
T5 sequence (O95838 1-553): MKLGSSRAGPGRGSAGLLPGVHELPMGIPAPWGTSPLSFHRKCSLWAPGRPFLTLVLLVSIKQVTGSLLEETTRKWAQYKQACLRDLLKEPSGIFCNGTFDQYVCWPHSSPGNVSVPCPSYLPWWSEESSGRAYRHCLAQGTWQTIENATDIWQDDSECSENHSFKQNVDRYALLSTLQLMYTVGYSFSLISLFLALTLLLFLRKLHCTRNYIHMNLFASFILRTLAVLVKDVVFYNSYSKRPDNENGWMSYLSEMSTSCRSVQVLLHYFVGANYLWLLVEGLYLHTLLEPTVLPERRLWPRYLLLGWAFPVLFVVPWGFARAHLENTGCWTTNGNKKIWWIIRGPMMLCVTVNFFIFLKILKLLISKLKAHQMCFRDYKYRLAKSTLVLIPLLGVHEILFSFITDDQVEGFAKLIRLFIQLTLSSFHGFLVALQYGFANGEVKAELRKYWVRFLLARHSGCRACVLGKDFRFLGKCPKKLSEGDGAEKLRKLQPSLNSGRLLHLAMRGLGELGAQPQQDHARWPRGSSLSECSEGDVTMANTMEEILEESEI

Compound | Emax (human GIPR) [%] | EC50 (human GIPR) [nM] | Emax (human GLP-2R) [%] | Emax (human GLP-1R) [%] | EC50 (human GLP-1R) [nM] | Absolute hGIPR internalization (AUC) (human SNAP-tagged GIPR) | Relative hGIPR internalization (%) (human SNAP-tagged GIPR) | GLP-2R activation (in words) (human GLP-2R; cAMP, fatty acid at C-terminus of 1-33 or 1-34 backbone) | Absolute hGLP-2R internalization (AUC) (human SNP-tagged GLP-2R)
HADGTFTSDYSTILDKLAARDFINWLIQTKGKK([AEEA-AEEA-γGlu-C18 diacid])NDWKHNITQ-OH [Compound 24] | 96 | 0.398 | 91 | 113 | 0.05 | 15.0 | 41 | – | –
CC[C@H](C)[C@H](NC(=O)[C@H](Cc1ccccc1)NC(=O)[C@H](CC(=O)O)NC(=O)[C@H](CCCNC(=N)N)NC(=O)[C@H](C)NC(=O)[C@H](C)NC(=O)[C@H](CC(C)C)NC(=O)[C@H](CC(N)=O)NC(=O)[C@H](CC(=O)O)NC(=O)[C@H](CC(C)C)NC(=O)[C@@H](NC(=O)[C@@H](NC(=O)[C@H](CO)NC(=O)[C@H](Cc1ccc(O)cc1)NC(=O)[C@H](CC(=O)O)NC(=O)[C@H](CO)NC(=O)[C@@H](NC(=O)[C@H](Cc1ccccc1)NC(=O)[C@@H](NC(=O)CNC(=O)[C@H](CC(=O)O)NC(=O)[C@H](C)NC(=O)[C@@H](N)Cc1c[nH]cn1)[C@@H](C)O)[C@@H](C)O)[C@@H](C)O)[C@@H](C)CC)C(=O)N[C@@H](CC(N)=O)C(=O)N[C@@H](Cc1c[nH]c2ccccc12)C(=O)N[C@@H](CC(C)C)C(=O)N[C@H](C(=O)N[C@@H](CCC(N)=O)C(=O)N[C@H](C(=O)N[C@@H](CCCCN)C(=O)NCC(=O)N[C@@H](CCCCN)C(=O)N[C@@H](CCCCNC(=O)CC[C@H](NC(=O)CCCCCCCCCCCCCCCCC(=O)O)C(=O)O)C(=O)O)[C@@H](C)O)[C@@H](C)CC [Compound 19] (H-HADGTFTSDYSTILDNLAARDFINWLIQTKGKK([γGlu-C18 diacid])-OH; N-terminus assumed) | 92 | 0.631 | 94 | 106 | 0.06 | 8.9 | 24 | reduction in GLP-2R activation | –
hGLP-1: native human glucagon-like peptide-1, endogenous GLP-1R ligand; which form (1-37, 7-36, 7-37) not stated [reference compound] | – | – | – | – | – | – | – | – | 48.6
CC[C@H](C)[C@H](NC(=O)[C@H](Cc1ccccc1)NC(=O)[C@H](CC(=O)O)NC(=O)[C@H](CCCCNC(=O)COCCOCCNC(=O)COCCOCCNC(=O)CC[C@H](NC(=O)CCCCCCCCCCCCCCCCC(=O)O)C(=O)O)NC(=O)[C@H](C)NC(=O)[C@H](C)NC(=O)[C@H](CC(C)C)NC(=O)[C@H](CC(N)=O)NC(=O)[C@H](CC(=O)O)NC(=O)[C@H](CC(C)C)NC(=O)[C@@H](NC(=O)[C@@H](NC(=O)[C@H](CO)NC(=O)[C@H](Cc1ccc(O)cc1)NC(=O)[C@H](CC(=O)O)NC(=O)[C@H](CO)NC(=O)[C@@H](NC(=O)[C@H](Cc1ccccc1)NC(=O)[C@@H](NC(=O)CNC(=O)[C@H](CC(=O)O)NC(=O)[C@H](C)NC(=O)[C@@H](N)Cc1c[nH]cn1)[C@@H](C)O)[C@@H](C)O)[C@@H](C)O)[C@@H](C)CC)C(=O)N[C@@H](CC(N)=O)C(=O)N[C@@H](Cc1c[nH]c2ccccc12)C(=O)N[C@@H](CC(C)C)C(=O)N[C@H](C(=O)N[C@@H](CCC(N)=O)C(=O)N[C@H](C(=O)N[C@@H](CCCCN)C(=O)NCC(=O)N[C@@H](CCCCN)C(=O)N[C@@H](CCCCN)C(=O)O)[C@@H](C)O)[C@@H](C)CC [Compound 18] | 82 | – | 91 | 112 | 0.06 | 2.1 | – | – | –
